Source: US7563895B2, “Quinoxaline compounds” (Janssen Pharmaceutica, N.V., priority 2003, dated 2009)
pKi: −log10 of the molar value.

Legend:
[1] = target: T1, CCK2 receptor (Homo sapiens, UniProt P32239); experiment: CCK2 receptor radioligand binding assay ([125I]-BH-CCK-8S, HEKZFP cell membranes); settings: competition with [125I]-BH-CCK-8S, membranes of induced HEKZFP cells, 60 min at 21±3° C., Cheng-Prusoff
T1 construct: Membranes were prepared from the HEKZFP cells after induction; endogenous in cells; host or cells: HEKZFP cells (T-REx-293 with tet-inducible ZFP-VP16 specific for the CCK2R gene), doxycycline-induced; membrane preparation
T1 sequence (P32239 1-447): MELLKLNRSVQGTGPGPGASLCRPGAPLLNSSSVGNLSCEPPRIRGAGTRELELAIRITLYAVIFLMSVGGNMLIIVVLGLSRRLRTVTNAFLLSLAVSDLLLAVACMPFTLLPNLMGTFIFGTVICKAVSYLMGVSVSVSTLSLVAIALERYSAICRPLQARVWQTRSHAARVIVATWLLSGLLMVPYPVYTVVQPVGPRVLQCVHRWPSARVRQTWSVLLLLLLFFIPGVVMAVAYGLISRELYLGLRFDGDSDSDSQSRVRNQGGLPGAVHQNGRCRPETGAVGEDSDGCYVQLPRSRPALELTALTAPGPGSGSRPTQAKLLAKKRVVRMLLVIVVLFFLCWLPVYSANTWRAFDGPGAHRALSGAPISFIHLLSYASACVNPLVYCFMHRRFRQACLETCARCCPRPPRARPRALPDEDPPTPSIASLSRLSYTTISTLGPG
Experimental: Zinc Finger Proteins (ZFP) specific for the CCK2R gene were identified by Sangamo Biosciences. The ZFP domain was fused with the herpes simplex virus VP16 activation domain, and the fusion protein was subsequently cloned into the pcDNA3 mammalian expression vector (Invitrogen, San Diego, Calif.). […] After 2 weeks of selection in culture medium containing […] Zeocin (Invitrogen), sixty drug-resistant stable clones were isolated and analyzed for ZFP expression as well as CCK2R induction upon addition of doxycycline to the culture medium.
HEKZFP cells were grown in DMEM supplemented with L-glutamine (2 mM), penicillin (50 units/mL) and streptomycin (50 μg/mL) and 10% FBS (v/v).
Membranes were prepared from the HEKZFP cells after induction. […] The thawed pellets were homogenized using a Polytron PT-10 (7×1 s). The homogenates were centrifuged for 5 min at 1500 rpm (600×g), and the resulting pellets were discarded. The supernatants were re-centrifuged in order to collect the receptor-membrane pellets (25 min 15,000 rpm; 39,800×g), which were re-suspended in buffer A.
The assay preparation was incubated for 1 h at 21±3° C., and then the assay was terminated by rapid filtration of the preparation under reduced pressure. The loaded filters were washed three times using undiluted PBS (100 μL), and then 100 μL of scintillation fluid was added to the filter plate. Bound radioactivity was determined using a Topcount (Packard BioScience, Meriden, Conn.) with a count time of 1 min. […] To validate the radioligand concentration and incubation time for the assay, saturation and kinetic binding studies were also conducted (see M. F. Morton, The Pharmacological Characterization of Cholecystokinin Receptors in the Human Gastrointestinal Tract. PhD Thesis, University of London, 2000). […] The assay was then terminated according to the procedure outlined above.
The pKi values were determined using the equation of Y.-C.
To circumvent problems associated with computer-assisted data analysis of compounds with low affinity, the data obtained in the current study were weighed according to a method described by Morton. In brief, 100% and 0% specific binding were defined independently using total binding and binding obtained in the presence of a high concentration of the reference antagonist, 2-NAP.

[2] = target: T2, CCK2 receptor (Cavia porcellus, UniProt H0VZC5); experiment: Guinea-pig gastric corpeal muscle assay (pentagastrin-induced contraction of isolated muscle strips); settings: pentagastrin concentration-response curves
T2 construct: strips of muscle were dissected and suspended in isolated tissue organ baths; from tissue; host or cells: guinea-pig gastric corpeal muscle strips
T2 sequence (H0VZC5 1-426): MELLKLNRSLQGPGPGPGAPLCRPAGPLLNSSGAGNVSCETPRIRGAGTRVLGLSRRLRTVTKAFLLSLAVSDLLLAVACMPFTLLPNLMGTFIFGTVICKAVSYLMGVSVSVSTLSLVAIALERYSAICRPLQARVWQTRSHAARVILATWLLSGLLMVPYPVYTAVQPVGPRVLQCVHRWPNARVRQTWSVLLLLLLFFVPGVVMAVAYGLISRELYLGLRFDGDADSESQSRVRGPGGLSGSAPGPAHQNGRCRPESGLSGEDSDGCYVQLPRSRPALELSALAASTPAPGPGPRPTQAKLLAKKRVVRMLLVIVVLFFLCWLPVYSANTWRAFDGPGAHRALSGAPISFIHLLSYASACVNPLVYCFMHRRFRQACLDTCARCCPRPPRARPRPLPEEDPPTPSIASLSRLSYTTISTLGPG
Experimental: Guinea-Pig Gastric Corpeal Muscle Assay
CCK2 receptor-mediated muscle contraction was measured in an isolated muscle-strip assay of guinea-pig gastric corpeal muscle according to the methods described by Roberts et al. (S. P. Roberts, E. A. Harper, G. F. Watt, V. P. Gerskowitch, R. A. Hull, N. P. Shankley, and J. W. Black, Br. J. Pharmacol., 1996, 118(7): 1779-1789). In brief, strips of muscle were dissected and suspended in isolated tissue organ baths for isotonic muscle contraction recording. The baths, containing Krebs-Henseleit solution, were maintained at 24° C. and gassed continuously with 95% O2 and 5% CO2. CCK1 receptors known to be present in this assay were blocked using a selective concentration of a suitable CCK1 receptor antagonist (e.g. 2-NAP). The effectiveness of the test compounds was assessed by measuring their effect on contractile concentration-response curves obtained using a well-characterized surrogate hormone gastrin (pentagastrin).

pKi [1]	behaviour in the assay (mode of antagonism) [2]	Kb ([2]; CCK1 receptors blocked, 24° C., read-out: pKB value (converted))	Compound
7.70	competitive antagonist	1.58 nM	C[C@@H](NC(=O)c1ccc(Br)cc1NS(=O)(=O)c1cccc2nccnc12)c1ccc(F)cc1F [Example 2, (R)-4-Bromo-N-[1-(2,4-difluoro-phenyl)-ethyl]-2-(quinoxaline-5-sulfonylamino)-benzamide]
7.60	–	–	O=C(N[C@H](CF)c1ccc(F)cc1F)c1ccc(Br)cc1NS(=O)(=O)c1cccc2nccnc12 [Example 76, (S)-4-Bromo-N-[1-(2,4-difluoro-phenyl)-2-fluoro-ethyl]-2-(quinoxaline-5-sulfonylamino)-benzamide]
